The values that follow come from patent publication US20060166869A1, “Novel use of lipopeptide preparations” (priority 2002, published 2006).

In assay [1] the target is T1, Bordetella pertussis tilted peptide (Bordetella pertussis, UniProt P12255).
T1 construct: purchased EPYTOP (Nimes, France)
It is filed as biochemical. To be noted: charged LUV, Tris NaCl buffer pH 7.4, Bordetella pertussis tilted peptide 2.42 μM (FIG. 8). The source says:
A number of different systems have been developed to assay peptide membrane fusion activity. Large unilamellar vesicles (LUV) are appropriate model for biological membrane fusion. Their curvature and their stability mimic suitably the cell membrane. Several different techniques for detecting and quantifying vesicle fusion are in common use. These include fluorescence assays that monitor fusion-induced lipid mixing between the two lipid bilayers of the membranes by observing the increase of fluorescence of a probe included in a part of vesicles in mixture. The dilution of the probe by fusion of the two bilayers from the two categories of vesicles causes a decrease of the self-quenching phenomenon leading to an increase of the fluorescence intensity.
Two sets of LUV are prepared: LUV with fluorescent probe (labelled LUV) and free probe LUV (unlabelled LUV). The probe used is the octadecyl rhodamine chloride (R18) (Molecular probes, Eugene, Oreg.).
The first step is the preparation of large multilamellar vesicles. For this, a mixing of different lipids is operated in a round bottomed Büchi flask. […]
Vesicles fusion is determined by measuring the fluorescence intensity change resulting from the fluorescence of the R18 probe. Fluorescence is monitored using fluorimeter LS-50B Perkin-Elmer (Norwalk, Conn. USA). […]

The target of the next assay is T2, SIV tilted peptide (Simian immunodeficiency virus, UniProt P05885).
T2 construct: SIV; 12; 528-539; GVFVLGFLGFLA; purchased SYNT:EM (Nimes, France)
Format: biochemical. To be noted: for concentration at which inhibition is complete: Tris NaCl buffer pH 7.4, SIV tilted peptide 0.966 μM (FIG. 6); for concentration at which complete (or nearly complete) inhibition of fusion is reached: Tris NaCl buffer pH 8.0, SIV tilted peptide 0.966 μM (FIG. 2); for inhibition of LUV fusion: Tris NaCl buffer pH 7.4, SIV tilted peptide 0.966 μM.

[2] abbreviates: uncharged LUV, Tris buffer without NaCl pH 8.0, SIV tilted peptide 0.966 μM (FIG. 5).

Where two headings read alike, the source gives them in different places. Bounds are passed on as bounds.

Turning to “cyclic surfactin with an iso-branched β-hydroxyled fatty acid chain containing 15 carbon atoms [SC15]”, the “concentration at which the fusogenic effect is inhibited completely” value in assay [1] is around 4.8 µM. Further, at SIV tilted peptide (charged LUV), the “concentration at which inhibition is complete” value is around 2.4 µM and the “concentration at which complete (or nearly complete) inhibition of fusion is reached” value was around 2.4 µM. Also, the “concentration at which fusion is completely inhibited” value at SIV tilted peptide (uncharged LUV, Tris NaCl buffer pH 8.0, SIV tilted peptide 0.966 μM (FIG. 4)) was around 3.2 µM. Besides, on SIV tilted peptide (setting [2]), the “antifusogenic activity in absence of NaCl compared with Tris NaCl buffer” value is given as “slightly improved” and the “concentration at which complete inhibition is reached” value is around 2 µM.

In the case of “linear surfactin, with an linear β-hydroxylated fatty acid chain containing 14 carbon atoms and with a linear peptide part [LSC14]”, on SIV tilted peptide (charged LUV, agent at concentration near 2 μM (FIG. 6)), the “inhibition of LUV fusion” value was determined as 60%.

For the substance “cyclic fengycin A with a β-hydroxyled fatty acid chain containing 16 carbon atoms [FAC16]”, in assay [1], the “concentration at which the fusogenic effect is inhibited completely” value was around 1.61 µM. At SIV tilted peptide (charged LUV), the “concentration at which inhibition is complete” value is around 2.4 µM and the “concentration at which complete (or nearly complete) inhibition of fusion is reached” value is around 1 µM. The “inhibition of LUV fusion” value against SIV tilted peptide (charged LUV, agent at 0.8 μM (FIG. 6)) is listed as 90%.

Turning to “cyclic surfactin with an iso-branched β-hydroxyled fatty acid chain containing 13 carbon atoms [SC13]”, the “concentration at which complete (or nearly complete) inhibition of fusion is reached” value on SIV tilted peptide (charged LUV) was above 4.8 µM.

As for “lysophosphatidylcholine [reference compound]”, on SIV tilted peptide (charged LUV, Tris NaCl buffer pH 8.0, agent at concentrations below 1 μM (FIG. 2)), the “effect on the fusion percentage” value is “no effect at all”. The antifusogenic activity on SIV tilted peptide (charged LUV, Tris NaCl buffer pH 8.0, agent at concentrations between 1 and 2 μM (FIG. 2)) is given as below 50%.

As to “cyclic surfactin with a linear β-hydroxyled fatty acid chain containing 14 carbon atoms [SC14]”, on SIV tilted peptide (charged LUV), the “concentration at which complete (or nearly complete) inhibition of fusion is reached” value is around 2.4 µM.
